system: TFEB; test: TFEB nuclear translocation assay, HeLa wt cells; assay type: cell-based; conditions: Homo sapiens, HeLa, 2 h, 2 hrs compound treatment, Table 1 does not say HeLa wt or TRPML1 KO
Outline: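 Cells are plated overnight, exposed to compounds for 2 hrs at 37° C, fixed with 4% PFA, blocked, and stained overnight at 4° C with rabbit anti-TFEB. After Alexa 488 secondary and Hoechst, nuclei and a perinuclear ring are segmented to give a nuclear:ring intensity ratio and AC50.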

Compared with `COCC1(C)CCN(c2ccccc2NS(=O)(=O)c2ccc3c(c2)OC2(CCC2)O3)CC1` [Compound A-685, N-{2-[4-(methoxymethyl)-4-methylpiperidin-1-yl]phenyl}spiro[1,3-benzodioxole-2,1′-cyclobutane]-6-sulfonamide], `COCC1(C)CCN(c2ccccc2NS(=O)(=O)c2ccc3c(c2)CC(OC)C3)CC1` (stereo not shown) [Compound A-707, 2-methoxy-N-{2-[4-(methoxymethyl)-4-methylpiperidin-1-yl]phenyl}-2,3-dihydro-1H-indene-5-sulfonamide] is higher in AC50: no more than 2000 nM for the first, 2010 to 8000 nM for the second.

`COCC1(F)CCN(c2ccccc2NS(=O)(=O)c2ccc(S(=O)(=O)N(C)C)cc2)CC1` [Compound A-686, N4-[2-[4-fluoro-4-(methoxymethyl)piperidin-1-yl]phenyl}-N1,N1-dimethylbenzene-1,4-disulfonamide] and `CCOC(=O)CC1(F)CCN(c2ccccc2NS(=O)(=O)c2ccc(S(=O)(=O)N(C)C)cc2)CC1` [Compound A-703, ethyl 2-(1-{2-[4-(dimethylsulfamoyl)benzenesulfonamido]phenyl}-4-fluoropiperidin-4-yl)acetate] cannot be ordered by AC50: no more than 2000 nM for the first, no more than 2000 nM for the second.

`CC1(C)CC2(CCN(c3ccccc3NS(=O)(=O)c3cccc(C4CC4(F)F)c3)CC2)CO1` (stereo not shown) [Compound A-687, 3-(2,2-difluorocyclopropyl)-N-(2-{3,3-dimethyl-2-oxa-8-azaspiro[4.5]decan-8-yl}phenyl)benzene-1-sulfonamide] and `CC1(C)CC2(CCN(c3ccccc3NS(=O)(=O)c3ccc(C4CC4(F)F)cc3)CC2)CO1` (stereo not shown) [Compound A-718, 4-(2,2-difluorocyclopropyl)-N-(2-{3,3-dimethyl-2-oxa-8-azaspiro[4.5]decan-8-yl}phenyl)benzene-1-sulfonamide] cannot be ordered by AC50: no more than 2000 nM for the first, no more than 2000 nM for the second.

First: Cc1ccc(CS(=O)(=O)Nc2ccccc2N2CCC3(CC2)COC(C)(C)C3)c(F)c1 [Compound A-688, N-(2-{3,3-dimethyl-2-oxa-8-azaspiro[4.5]decan-8-yl}phenyl)-1-(2-fluoro-4-methylphenyl)methanesulfonamide]
Second: Cc1ccc(CS(=O)(=O)Nc2ccccc2N2CCC3(CC2)COC(C)(C)C3)cc1 [Compound A-711, N-(2-{3,3-dimethyl-2-oxa-8-azaspiro[4.5]decan-8-yl}phenyl)-1-(4-methylphenyl)methanesulfonamide]
The AC50 of the first is higher: 2010 to 8000 nM for the first, no more than 2000 nM for the second.

Compared with `CC1(C)CC2(CCN(c3ccccc3NS(=O)(=O)c3ccn(C4CC4(F)F)n3)CC2)CO1` (stereo not shown) [Compound A-689, 1-(2,2-difluorocyclopropyl)-N-(2-{3,3-dimethyl-2-oxa-8-azaspiro[4.5]decan-8-yl}phenyl)-1H-pyrazole-3-sulfonamide], `Cc1ccc(S(=O)(=O)Nc2ccccc2N2CCC3(CC2)COC(C)(C)C3)cc1F` [Compound A-692, N-(2-{3,3-dimethyl-2-oxa-8-azaspiro[4.5]decan-8-yl}phenyl)-3-fluoro-4-methylbenzene-1-sulfonamide] is lower in AC50: no less than 10000 nM for the first, 2010 to 8000 nM for the second.

Compared with `CC1(C)CC2(CCN(c3ccccc3NS(=O)(=O)c3ccc4c(c3)CCC(C(F)F)O4)CC2)CO1` (stereo not shown) [Compound A-690, 2-(difluoromethyl)-N-(2-{3,3-dimethyl-2-oxa-8-azaspiro[4.5]decan-8-yl}phenyl)-3,4-dihydro-2H-1-benzopyran-6-sulfonamide], `CC1(C)CC2(CCN(c3ccccc3NS(=O)(=O)c3ccc4c(c3)CCC4)CC2)CO1` [Compound A-713, N-(2-{3,3-dimethyl-2-oxa-8-azaspiro[4.5]decan-8-yl}phenyl)-2,3-dihydro-1H-indene-5-sulfonamide] is lower in AC50: 2010 to 8000 nM for the first, no more than 2000 nM for the second.

`CC1(C)CC2(CCN(c3ccccc3NS(=O)(=O)c3ccc(Br)cc3)CC2)CO1` [Compound A-691, 4-bromo-N-(2-{3,3-dimethyl-2-oxa-8-azaspiro[4.5]decan-8-yl}phenyl)benzene-1-sulfonamide] and `CC1(C)CC2(CCN(c3ccccc3NS(=O)(=O)c3ccc(S(C)(=O)=O)cc3)CC2)CO1` [Compound A-693, N-(2-{3,3-dimethyl-2-oxa-8-azaspiro[4.5]decan-8-yl}phenyl)-4-methanesulfonylbenzene-1-sulfonamide] fall in the same range of AC50: 2010 to 8000 nM for the first, 2010 to 8000 nM for the second.

`COCC1(C)CCN(c2cc(F)ccc2NS(=O)(=O)c2ccc(S(=O)(=O)N(C)C)cc2)CC1` [Compound A-694, N4-{4-fluoro-2-[4-(methoxymethyl)-4-methylpiperidin-1-yl]phenyl}-N1,N1-dimethylbenzene-1,4-disulfonamide] and `COCC1(C)CCN(c2ccc(F)cc2NS(=O)(=O)c2ccc(S(=O)(=O)N(C)C)cc2)CC1` [Compound A-695, N4-{5-fluoro-2-[4-(methoxymethyl)-4-methylpiperidin-1-yl]phenyl}-N1,N1-dimethylbenzene-1,4-disulfonamide] cannot be ordered by AC50: no more than 2000 nM for the first, no more than 2000 nM for the second.

`CN(C)S(=O)(=O)c1ccc(S(=O)(=O)Nc2ccccc2N2CCC(COC(F)(F)F)CC2)cc1` [Compound A-696, N1,N1-dimethyl-N4-(2-{4-[(trifluoromethoxy)methyl]piperidin-1-yl}phenyl)benzene-1,4-disulfonamide] and `CCOCC1(C)CCN(c2ccccc2NS(=O)(=O)c2ccc(S(=O)(=O)N(C)C)cc2)CC1` [Compound A-719, N4-{2-[4-(ethoxymethyl)-4-methylpiperidin-1-yl]phenyl}-N1,N1-dimethylbenzene-1,4-disulfonamide] cannot be ordered by AC50: no more than 2000 nM for the first, no more than 2000 nM for the second.

First: COCC1(C)CCN(c2ccccc2NS(=O)(=O)c2ccc(S(C)(=O)=O)cc2)CC1 [Compound A-697, 4-methanesulfonyl-N-{2-[4-(methoxymethyl)-4-methylpiperidin-1-yl]phenyl}benzene-1-sulfonamide]
Second: COCC1(C)CCN(c2ccccc2NS(=O)(=O)c2ccc(C(C)C)cc2)CC1 [Compound A-706, N-{2-[4-(methoxymethyl)-4-methylpiperidin-1-yl]phenyl}-4-(propan-2-yl)benzene-1-sulfonamide]
The AC50 of the first is higher: 2010 to 8000 nM for the first, no more than 2000 nM for the second.

`CC1(C)CC2(CCN(c3ccccc3NS(=O)(=O)c3ccc4c(c3)COC4(C)C)CC2)CO1` [Compound A-700, N-(2-{3,3-dimethyl-2-oxa-8-azaspiro[4.5]decan-8-yl}phenyl)-1,1-dimethyl-1,3-dihydro-2-benzofuran-5-sulfonamide] and `CC1(C)CC2(CCN(c3ccccc3NS(=O)(=O)c3ccc4c(c3)OC(C)(C)C4)CC2)CO1` [Compound A-720, N-(2-{3,3-dimethyl-2-oxa-8-azaspiro[4.5]decan-8-yl}phenyl)-2,2-dimethyl-2,3-dihydro-1-benzofuran-6-sulfonamide] fall in the same range of AC50: 2010 to 8000 nM for the first, 2010 to 8000 nM for the second.

Compared with `COCCS(=O)(=O)c1ccc(S(=O)(=O)Nc2ccccc2N2CCC(c3ccc(Cl)cc3F)CC2)cc1` [Compound A-701, N-{2-[4-(4-chloro-2-fluorophenyl)piperidin-1-yl]phenyl}-4-(2-methoxyethanesulfonyl)benzene-1-sulfonamide], `COCC1(C)CCN(c2ccccc2NS(=O)(=O)c2ccc(C(C)(C)C(=O)OC)cc2)CC1` [Compound A-705, methyl 2-[4-({2-[4-(methoxymethyl)-4-methylpiperidin-1-yl]phenyl}sulfamoyl)phenyl]-2-methylpropanoate] is higher in AC50: no more than 2000 nM for the first, 8010 to 9990 nM for the second.

First: CC1(C)CC2(CCN(c3c(F)cccc3NS(=O)(=O)Cc3ccccc3)CC2)CO1 [Compound A-702, N-(2-{3,3-dimethyl-2-oxa-8-azaspiro[4.5]decan-8-yl}-3-fluorophenyl)-1-phenylmethanesulfonamide]
Second: CC1(C)CC2(CCN(c3ccccc3NS(=O)(=O)Cc3ccc(C(F)F)cc3)CC2)CO1 [Compound A-716, 1-[4-(difluoromethyl)phenyl]-N-(2-{3,3-dimethyl-2-oxa-8-azaspiro[4.5]decan-8-yl}phenyl)methanesulfonamide]
The AC50 of the first is lower: no more than 2000 nM for the first, 2010 to 8000 nM for the second.

Compared with `CC1(C)CC2(CCN(c3ccccc3NS(=O)(=O)c3ccc4c(c3)OC(C)(C)O4)CC2)CO1` [Compound A-704, N-(2-{3,3-dimethyl-2-oxa-8-azaspiro[4.5]decan-8-yl}phenyl)-2,2-dimethyl-2H-1,3-benzodioxole-5-sulfonamide], `CC1(C)CC2(CCN(c3ccccc3NS(=O)(=O)c3ccc4c(c3)COC4)CC2)CO1` [Compound A-714, N-(2-{3,3-dimethyl-2-oxa-8-azaspiro[4.5]decan-8-yl}phenyl)-1,3-dihydro-2-benzofuran-5-sulfonamide] is higher in AC50: no more than 2000 nM for the first, 8010 to 9990 nM for the second.

Compared with `COCC1(C)CCN(c2ccccc2NS(=O)(=O)c2ccc(C3CC3)s2)CC1` [Compound A-708, 5-cyclopropyl-N-{2-[4-(methoxymethyl)-4-methylpiperidin-1-yl]phenyl}thiophene-2-sulfonamide], `COCC1(C)CCN(c2ccccc2NS(=O)(=O)Cc2ccc(C)cc2F)CC1` [Compound A-709, 1-(2-fluoro-4-methylphenyl)-N-{2-[4-(methoxymethyl)-4-methylpiperidin-1-yl]phenyl}methanesulfonamide] is higher in AC50: no more than 2000 nM for the first, 2010 to 8000 nM for the second.

First: COC(=O)C(C)(C)c1ccc(S(=O)(=O)Nc2ccccc2N2CCC3(CC2)COC(C)(C)C3)cc1 [Compound A-710, methyl 2-{4-[(2-{3,3-dimethyl-2-oxa-8-azaspiro[4.5]decan-8-yl}phenyl)sulfamoyl]phenyl}-2-methylpropanoate]
Second: CC1(C)CC2(CCN(c3ccccc3NS(=O)(=O)c3ccc4c(c3)COCC4)CC2)CO1 [Compound A-715, N-(2-{3,3-dimethyl-2-oxa-8-azaspiro[4.5]decan-8-yl}phenyl)-3,4-dihydro-1H-2-benzopyran-7-sulfonamide]
The AC50 of the first is higher: 8010 to 9990 nM for the first, no more than 2000 nM for the second.

`CC1(C)CC2(CCN(c3ccccc3NS(=O)(=O)Cc3ccc4c(c3)COCC4)CC2)CO1` [Compound A-712, 1-(3,4-dihydro-1H-2-benzopyran-7-yl)-N-(2-{3,3-dimethyl-2-oxa-8-azaspiro[4.5]decan-8-yl}phenyl)methanesulfonamide] and `CC1(C)CC2(CCN(c3ccccc3NS(=O)(=O)C3(c4ccccc4)CC3)CC2)CO1` [Compound A-717, N-(2-{3,3-dimethyl-2-oxa-8-azaspiro[4.5]decan-8-yl}phenyl)-1-phenylcyclopropane-1-sulfonamide] fall in the same range of AC50: 2010 to 8000 nM for the first, 2010 to 8000 nM for the second.

— patent US20230104936A1, “TRPML MODULATORS” (Casma Therapeutics, Inc., priority 2019, published 2023)
